# In ChEMBL document CHEMBL5046254, “Mycobactin Analogues with Excellent Pharmacokinetic Profile Demonstrate Potent Antitubercular Specific Activity and Exceptional Efflux Pump Inhibition” (J Med Chem, 2022):
# Columns and labels:
# [1] = test system: Mycobacterium tuberculosis variant bovis; assay: Antimicrobial activity against Mycobacterium bovis BCG ATCC 35734 cultured in GAST-Fe media incubated for 5 days by resazurin microtiter assay; assay type: functional; settings: BCG ATCC 35734, 120 h, time 5 day
# [2] = test system: Mycobacterium tuberculosis variant bovis; assay: Antimicrobial activity against Mycobacterium bovis BCG ATCC 35734 cultured in GAST media incubated for 5 days by resazurin microtiter assay; assay type: functional; settings: BCG ATCC 35734, 120 h, time 5 day
smiles,measurement,setting,value
NC(=S)N1N=C(c2ccccc2O)CC1c1ccccc1 (stereo not drawn),MIC90,[1],32 µg/mL
same,MIC90,[2],16 µg/mL
NC(=S)N1N=C(c2ccccc2O)CC1c1ccc(O)cc1 (stereo not drawn),MIC90,[1],32 µg/mL
same,MIC90,[2],16 µg/mL
Oc1ccccc1C1=NNC(c2ccc(Cl)cc2)C1 (stereo not drawn),MIC90,[1],32 µg/mL
same,MIC90,[2],8 µg/mL
Oc1ccccc1C1=NNC(c2ccc(Br)cc2)C1 (stereo not drawn),MIC90,[1],64 µg/mL
same,MIC90,[2],8 µg/mL
